The source of these data is patent publication US6353011B1, “1,2-dithiolane derivatives” (University of Mississippi, priority 1999, dated 2002).

Series [1] deals with Human keratinocytes. Put plainly: Cell toxicity by lactate dehydrogenase release in keratinocyte culture. The following applies: highest concentration tested. It counts as cell-based.
Series [2] deals with Human MDA-MB-23 1 breast cancer cells. Put plainly: MDA-MB-231 breast cancer cell proliferation (cell numbers). It is filed as cell-based. The method, then:
[…]. […] Human MDA-MB-23 1 breast cancer cells were incubated with varying concentrations of either compound 86 or troglitazone and the effects on cell proliferation determined by measurement of cell numbers. […]. Compound 86 inhibits growth of human breast cancer cells.

The next series concerns the target T1, PPAR gamma (Mus musculus, UniProt P37238).
T1 sequence (P37238 1-505): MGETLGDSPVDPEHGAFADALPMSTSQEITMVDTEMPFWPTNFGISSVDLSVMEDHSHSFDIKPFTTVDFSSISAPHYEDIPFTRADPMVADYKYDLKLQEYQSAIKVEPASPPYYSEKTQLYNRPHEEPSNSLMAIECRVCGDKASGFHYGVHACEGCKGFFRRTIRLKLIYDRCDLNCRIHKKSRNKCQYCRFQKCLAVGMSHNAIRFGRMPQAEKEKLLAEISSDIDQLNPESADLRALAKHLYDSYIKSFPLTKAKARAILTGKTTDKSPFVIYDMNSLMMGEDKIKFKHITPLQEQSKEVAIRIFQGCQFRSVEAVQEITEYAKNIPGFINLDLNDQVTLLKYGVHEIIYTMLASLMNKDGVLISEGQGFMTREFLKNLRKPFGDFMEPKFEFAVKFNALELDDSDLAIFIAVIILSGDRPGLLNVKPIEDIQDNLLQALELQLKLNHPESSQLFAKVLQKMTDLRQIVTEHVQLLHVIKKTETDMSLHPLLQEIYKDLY
Put plainly: In vitro molecular assays of PPAR gamma activation.

In series [3] the test system is 3T3 L 1 fibroblasts. Kind of series: 3T3 L1 differentiation into adipocytes (morphology, oil red O staining). It counts as cell-based. The following applies: 3T3L1 cells. Here is the method: (§1) This example illustrates the effects of compound 87 and troglitazone on proliferation of 3T3 L 1 fibroblasts and differentiation into adipocytes. 3T3L1 cells were incubated with varying concentrations of either compound 87 or troglitazone and the effects on cell proliferation determined by measurement of cell numbers. […] The compounds of the present invention are capable of preventing cell proliferation without inducing adipogenesis and represent useful agents for treatment and prevention of obesity.

In series [4] the test system is insulin resistant obese Zucker rats. Put plainly: Serum insulin and glucose in insulin resistant obese Zucker rats. The following applies: oral 100 mg/kg/day for one week, versus placebo controls. It counts as in vivo, rat. An excerpt: The drug was suspended in a mixture of 0.5% carboxymethylcellulose and administered by gavage. […] After one week, blood samples were obtained for measurement of serum insulin levels by radioimmunoassay and serum glucose levels by glucose oxidase method. […] The effects of a higher dose of orally administered Rezulin® (troglitazone) on serum insulin and glucose levels in male obese Zucker rats as reported by Fujiwara et al., Diabetes 37.1549 are shown for comparison purposes.

The test system of series [5] is Human MCF-7 breast cancer cells. Put plainly: MCF-7 breast cancer cell proliferation (cell numbers). It is filed as cell-based. The following applies: MCF-7, varying concentrations.
Series [6] concerns Human keratinocytes. Kind of series: Human keratinocyte proliferation (cell numbers). It is filed as cell-based. The following applies: varying concentrations.
Series [7] concerns Human HT-29 colon cancer cells. Put plainly: HT-29 colon cancer cell proliferation (cell numbers). It is filed as cell-based.
Series [8] has as its system insulin resistant obese Zucker rats. Put plainly: Triglyceride levels in insulin resistant obese Zucker rats. It counts as in vivo, rat. The following applies: oral 100 mg/kg/day for one week. From the text:
The drug was suspended in a mixture of 0.5% carboxymethylcellulose and administered by gavage.

Series [9] deals with 3T3 L 1 fibroblasts. Put plainly: 3T3 L1 fibroblast proliferation (cell numbers). It counts as cell-based. The following applies: 3T3L1 cells. The method, then:
as §1

The conditions of series [10]: Ulrich et al., U.S. Pat. No. 5,728,735; cited from earlier work.

SMILES strings stand for the structures.

With `Cc1c(C)c2c(c(C)c1O)CCC(C)(COc1ccc(CC3SC(=O)NC3=O)cc1)O2` (centres unmarked) [troglitazone, reference compound], the “cell toxicity (release of lactate dehydrogenase in the culture medium)” value in the series with Human keratinocytes [1] is “associated with cell toxicity”.

Consider `O=C(CCCCC1CCSS1)NCCOc1ccc(CC2SC(=O)NC2=O)cc1` (centres unmarked) [compound 86], for which the “potency in inhibiting malignant cell proliferation compared with troglitazone” value in series [2] (MDA-MB-23 1) was “more potent than troglitazone”. Also, the “cell proliferation (cell numbers)” value in series [2] (MDA-MB-23 1, varying concentrations) is given as “dose dependent inhibition of cell proliferation”.

As to `CN(C(=O)CCCCC1CCSS1)c1ccc(CC2SC(=O)NC2=O)cc1` (centres unmarked) [compound 87], the “activation of PPAR gamma” value on PPAR gamma was “did not activate PPAR gamma”. In addition, in the series on 3T3 L 1 fibroblasts [3], the “adipogenesis and conversion of the fibroblasts to adipocytes” value is reported as “but not compound 87 induced adipogenesis”.

Turning to `CN(CCOc1ccc(CC2SC(=O)NC2=O)cc1)C(=O)CCCCC1CCSS1` (centres unmarked) [compound 12], the serum glucose levels entry in series [4] (glucose oxidase method) is recorded as “reductions in glucose levels”. Also, the serum insulin levels result in series [4] (radioimmunoassay) is given as “reductions in serum insulin levels”. In the series with Human keratinocytes [1], the “cell toxicity (release of lactate dehydrogenase in the culture medium)” value is listed as “without inducing cell toxicity”. Moreover, the “cell proliferation (cell numbers)” value in series [5] is listed as “dose dependent inhibition of malignant cell proliferation”; in the series on Human keratinocytes [6], “dose dependent inhibition of cell proliferation”; in series [7] (HT-29, varying concentrations), “dose dependent inhibition of cell proliferation”. The “potency in inhibiting malignant cell proliferation compared with troglitazone” value in [7] (HT-29) is listed as “more potent than troglitazone”. Also, the “adipogenesis and conversion of the fibroblasts to adipocytes” value in the series on 3T3 L 1 fibroblasts [3] is “potent inducers of adipogenesis”. Further, the triglyceride levels entry in series [8] is on record as “potent ability to reduce triglyceride levels”. The “potency of inhibition of fibroblast proliferation compared with troglitazone” value with 3T3 L 1 fibroblasts [9] is “in a more potent fashion than troglitazone”. Also, in the series on 3T3 L 1 fibroblasts [9] (varying concentrations), the “fibroblast proliferation (cell numbers)” value is “dose dependent inhibition of fibroblast proliferation”.

`O=C(O)CCCC[C@@H]1CCSS1` [R-lipoic acid]: the “anti-inflammatory activity, factor stronger than that of the racemate” value in [10] is 10.
